Measurements published in patent publication US12371402B2, “Mitochondrial activity inhibitors targeting tumoral metabolism” (CENTRE LEON BERARD, priority 2018, dated 2025).

Experiments:
[1] = system: RL follicular lymphoma cells; test: WST-1 cell viability test, RL follicular lymphoma cells; type: cell-based; details: Homo sapiens, 24 hours incubation
Source text: (§1) RL cells (from ATCC, CRL-2261), SUDHL-4 cells (from ATCC, CRL-2957), GRANTA cells, BJAB Burkitt lymphoma cells, SUDHL4 DLBCL lymphoma cells, REC-1 Mantle lymphoma cells, RL follicular lymphoma cells, MTA NK/T lymphoma cells, HUT-78 Sesary T lymphoma cells, Karpas-384 gamma/delta PTCL lymphoma cells and SR-786 ALCL/Alk+ lymphoma Wild type/rescue MEF_LKB1+/+(mouse embryonic fibroblasts) cells were taken as a control; and mutated MEF_LKB−/− cells in which LKB1 gene was invalidated (Bardeesy et al., 2002). All cells were grown in flasks in RPMI 1640 Glutamax medium 11 mM Glucose supplemented with 10% fetal bovine serum and 1% penicillin-streptomycin medium supplemented with 10% fetal bovine serum and 1% penicillin-streptomycin. Cells were maintained at a constant temperature of 37° C. in a humidified atmosphere containing 5% CO2/95% air.
(§2) Drugs (compound 1 and Metformin) were initially diluted in DMSO (=vehicle dimethylsulfoxide). […] Lymphoma cells in exponential phase of growth were counted and assessed for more than 95% viability by trypan blue coloration. […] The formazan dye produced by viable cells can be quantified by measuring the absorbance at 440 nm. Cell viability was assessed comparing wells containing drugs to those with vehicle only. […]

[2] = system: Karpas-384 gamma/delta PTCL lymphoma cells; test: WST-1 cell viability test, Karpas-384 lymphoma cells; type: cell-based; details: Homo sapiens, 24 hours incubation
Source text: as §1, §2

[3] = system: Human B lymphoma and T lymphoma cell lines; test: WST-1 cell viability test, panel of human B and T lymphoma cell lines; type: cell-based
Source text: as §1, §2

INS-1 cells = test: WST-1 cell viability test, pancreatic neuroendocrine tumor cell line INS-1; type: cell-based
Description: (§3) Drugs (compound 1 and Metformin) were initially diluted in DMSO (=vehicle dimethylsulfoxide). Appropriate dilutions of these stocks were performed in DMSO and finally in culture medium; 15 μl of each dilution was distributed in 4 wells (replicates) according to the plate schedule to obtain final drug concentrations (0.1 μM to 1 mM for metformin and 1 μM to 200 μM for compound 1) after cells were added. Control wells with vehicle at the appropriate dilution only were included. Lymphoma cells in exponential phase of growth were counted and assessed for more than 95% viability by trypan blue coloration. […] Adherent cells (MEFs cells and INS-1 cells were seeded the day before to obtain 80% confluence the day of experiment. Culture medium was renewed with 35 μL fresh medium and 15 μl of appropriated drug dilution was then added. These plates were incubated 24 hours at 37° C./5% CO2. Then addition of 5 μl of WST-1 cell proliferation reagent (Roche, #11644807001) was performed, before incubation 2-4 hours at 37° C. and lecture of the absorbance following the manufacturer instructions. WST-1 assays are non-radioactive, rapid and more sensitive than MTT, XTT, or MTS-based assays. The WST-1 assay is based on the cleavage of the tetrazolium salt WST-1 to formazan by cellular mitochondrial dehydrogenases. […] Cell viability was assessed comparing wells containing drugs to those with vehicle only. […]

[4] = system: MEF_LKB-/- and MEF_LKB1+/+ cells; test: WST-1 cell viability test, MEF cells with or without the LKB1 gene; type: cell-based, mouse; details: MEF_LKB-/- versus MEF_LKB1+/+, 24 hours
Description: as §3

[5] = system: Follicular Lymphoma (RL model) xenograft; test: CDX xenograft tumor volume, RL model; type: in vivo, female SCID mice; details: 50 mg/kg intraperitoneal five times a week, versus DMSO control
Source text: (§4) CDX (cell derived xenografts) models of human NHL were used: Follicular Lymphoma (RL model), Diffuse Large B Cell Lymphoma (SUDHL-4 model). Cells were subcutaneously implanted; since the tumor growth was not homogeneous, it was decided to implant surgically 2×2 mm pieces from these initial tumours. Animals were female SCID mice.
(§5) Mice were randomized when the tumors reach a mean volume of 100 mm^3 for the 2 groups (control and compound 1). […] The endpoints are defined by animal ethics as a tumor diameter of >18 mm, significant weight loss or alteration of animal well-being. In order to assess the effectiveness of the compound 1 on tumorigenesis, tumor volume was measured three times a week. The sizes of the primary tumors were measured using calipers and the tumor volume (TV) was extrapolated to a sphere using the formula TV=4/3 π×r3, by calculating the mean radius from the two measurements. The median and standard deviation were also calculated for each group. Median is preferred to mean in order to exclude the extreme values.
(§6) COMPOUND 1 was administered by intraperitoneal injection five times a week, at dose 50 mg/kg. Control DMSO was administered also by intraperitoneal injection five times a week. […]
(§7) Unless specified, the non-parametric Mann-Whitney test was performed on the tumor volume values (mm^3) measured on the day of the first euthanasia.

[6] = system: Diffuse Large B Cell Lymphoma (SUDHL-4 model) xenograft; test: CDX xenograft tumor volume, SUDHL-4 model; type: in vivo, female SCID mice; details: SUDHL-4 xenograft, 50 mg/kg intraperitoneal five times a week, versus DMSO control
Source text: as §4, §5, §6, §7

[7] = system: mitochondrial ECT complex1; test: Oxygen consumption in permeabilized tumoral cells (RL, SUDHL4, GRANTA); type: cell-based, human
Description: Human Cell lines: RL cells (from ATCC, CRL-2261) and SU-DHL-4 cells (from ATCC, CRL-2957) were grown in flasks in RPMI 1640—Glutamax medium supplemented with 10% fetal bovine serum and 1% penicillin-streptomycin. GRANTA cells were grown in flasks in DMEM-Glutamax medium supplemented with 10% fetal bovine serum and 1% penicillin-streptomycin. Cells were maintained at a constant temperature of 37° C. in a humidified atmosphere containing 5% CO2/95% air.
(§8) Oxygen consumption was measured in a thermostatically controlled oxigraph vessel equipped with a Clarck oxygen electrode at 37° C. (Strathkelvin MS200A system).
(§9) Experiment was started by the addition of 100 μg/ml digitonine and either 5 mM Glutamate plus 2.5 mM Malate or 5 mM Succinate plus 1 μM rotenone, followed by the addition of 500 μM ADP (state 3) then 2 μg/ml Oligomycin (state 4).
Cell lines: RL, SU-DHL-4 or GRANTA cells were centrifuged and counted. A cell suspension (100 million of trypan blue negative cells per ml) was prepared in respiration buffer. 10 million cells were added in the oxigraph chamber containing respiration buffer. The final volume was 1 ml. compound 1 (0.5 to 20 μM) was added to permeabilized cells after the addition of ADP or oligomycin.
(§10) All measures were realized 2 min after drugs addition.

[8] = system: mitochondrial ECT complex1; test: Oxygen consumption in permeabilized fresh hepatocytes; type: cell-based; details: permeabilized rat liver hepatocytes, state 3, 2 min after addition
Description: Rat liver hepatocytes were isolated from overnight-starved animals by enzymatic digestion with collagenase according to the method of Berry and Friend modified by Groen.
Primary hepatocytes were directly used after isolation (for metabolic analyses). Cells were maintained at a constant temperature of 37° C. in a humidified atmosphere containing 5% CO2/95% air. The medium was removed after 4 h (time necessary for cell attachment) and replaced by fresh medium.
as §8, §9
Primary hepatocytes: 5.105 fresh hepatocytes were added in the oxigraph chamber containing respiration buffer (KET buffer: KCl 125 mM, EGTA 1 mM, Tris 20 mM) supplemented with 0.1% BSA, 5 mM inorganic phosphate (Pi). The final volume was 1 ml. Oxygen consumption rate was measured before and after the addition of compound 1 (1, 20, 50 or 100 μM) either in resting (state 2) or phosphorylating (state 3) condition.
as §10

[9] = system: panel of hematological cell lines; test: Live cell number by flow cytometry, panel of hematological cell lines; type: cell-based, human; details: 10 μM, 48 hours
Description: (§11) All the cells were routinely maintained in RPMI 1640 culture medium 11 mM glucose supplemented with 10% FCS. The day of experiment, cells (80 to 100.10^3/well) in exponential phase of growth were seeded in 96 wells plates, in 100 μl of culture medium final volume, in absence (not treated: NT) or presence of indicated compounds concentrations. Stocks of compounds were 10 mM in DMSO, and final DMSO concentration in assay was 0.1%. The control not treated (NT) assays contains 0.1% DMSO. After 48h of incubation at 37° C., cells were immediately analyzed by flow cytometry. Apoptosis was detected using Annexin V/PI staining protocol, according to manufacturer indications.
(§12) Compounds 2 to 4 (named respectively C2 to C4 in the figures) were tested and compared with IACS-010759 (IACS), an OXPHOS inhibitor in clinical phase 1 trial which is assessed in parallel (Molina et al., 2018).

[10] = system: Karpas-422 DLBCL lymphoma; test: Apoptosis by Annexin V/PI flow cytometry, Karpas-422; type: cell-based, human; details: Karpas-422, 10 μM, 48 hours
Description: as §11, §12

| Compound | IC50 [1] | IC50 [2] | IC50 compared with IC50 of metformin ([3]; all lymphomas, 24 hours incubation, WST-1) | sensitivity of lymphoma cell lines (viability) ([3]; human B and T lymphoma, 24 hours, 1 μM to 200 μM) | IC50 compared with IC50 of metformin (INS-1 cells; 24 hours incubation) | IC50 (INS-1 cells; Rattus norvegicus, INS1, 24 hours incubation) | toxicity on cells with or without LKB1 (viability) [4] | tumor growth (tumor volume) [5] | tumor growth (tumor volume) [6] | mitochondrial oxygen consumption ([7]; permeabilized RL, SUDHL4 and GRANTA cells, state 3, 2 min after addition) | dose inhibiting oxygen consumption, tumoral cells versus fresh hepatocytes ([7]; permeabilized tumoral cells (RL, SUDHL4, GRANTA) compared with permeabilized fresh hepatocytes) | mitochondrial oxygen consumption [8] | number of living cells [9] | apoptosis (apoptotic cells/cell decrease) [10] |
| --- | --- | --- | --- | --- | --- | --- | --- | --- | --- | --- | --- | --- | --- | --- |
| N=C(Nc1ccccc1)SCCCCCCSC(=N)Nc1ccccc1 [compound 1] | < 10 µM | < 10 µM | far below IC50 of metformin | sensible to compound 1 | far below IC50 of metformin | < 10 µM | more toxic for the cells that do not express the LKB1 protein | reduces tumor growth | reduces tumor growth | inhibits mitochondrial oxygen consumption in all cells tested | about 25 times smaller | inhibits mitochondrial oxygen consumption in all cells tested | – | – |
| N=C(Nc1ccc2ccccc2c1)SCCCCCCSC(=N)Nc1ccc2ccccc2c1 [compound 4] | – | – | – | – | – | – | – | – | – | – | – | – | induces a differential decrease in the number of living cells | can induce apoptosis |
